Measured values as given in US8466176B2 (priority 2008, dated 2013).

Experiment: logP(HCOOH) reported with HPLC/MS
Conditions: HCOOH (formic acid), logP(HCOOH), HPLC/MS

| SMILES | chromatographic logP |
| --- | --- |
| CN(C)c1cccc(C(=NOCc2cccc(N3C(=O)c4ccccc4C3=O)n2)c2nnnn2C)c1 [2-(6-{[({[3-(dimethylamino)phenyl](1-methyl-1H-tetrazol-5-yl)methylene}amino)oxy]methyl}pyridin-2-yl)-1H-isoindole-1,3(2H)-dione] | 3.17 |
| CN(C)c1cccc(C(=O)c2nnnn2C)c1 [[3-(dimethylamino)phenyl](1-methyl-1H-tetrazol-5-yl)methanone] | 2.21 |
| CSc1cccc(C(=O)c2nnnn2C)c1 [[3-(methylsulfanyl)phenyl](1-methyl-1H-tetrazol-5-yl)methanone] | 2.52 |
| Cc1cccc(C2OCCO2)[n+]1[O-] [2-(1,3-dioxolan-2-yl)-6-methylpyridine 1-oxide] | 0.45 |
| Cc1cccc(NC(=O)C(C)(C)C)n1 [2,2-dimethyl-N-(6-methylpyridin-2-yl)propanamide] | 1.2 |
| Cc1sc(Br)nc1CO [(2-bromo-5-methyl-1,3-thiazol-4-yl)methanol] | 1.1 |
| CCCCCCN(C=O)c1cccc(C)n1 [N-hexyl-N-(6-methylpyridin-2-yl)formamide] | 3.46 |
| CCCCCON(C(=O)OC(C)(C)C)c1cccc(CON=C(c2ccccc2)c2nnnn2C)n1 [Example 268, tert-butyl {6-[({[(1-methyl-1H-tetrazol-5-yl)(phenyl)methylene]amino}oxy)methyl]pyridin-2-yl}(pentyloxy)carbamate] | 5.25 |
| CCCCSC(=O)Nc1cccc(CON=C(c2ccccc2)c2nnnn2C)n1 [S-butyl {6-[({[(1-methyl-1H-tetrazol-5-yl)(phenyl)methylene]amino}oxy)methyl]pyridin-2-yl}carbamothioate] | 4.25 |

Same assay, conditions: HPLC, logP(HCOOH), HPLC/MS

| SMILES | chromatographic logP |
| --- | --- |
| Cc1sc(Br)nc1CON=C(c1ccccc1)c1nnnn1C [Example 175, N-[(2-bromo-5-methyl-1,3-thiazol-4-yl)methoxy]-1-(1-methyl-1H-tetrazol-5-yl)-1-phenylmethanimine] | 3.37 |

Same assay, conditions: formic acid (HCOOH), logP(HCOOH), HPLC/MS

| SMILES | chromatographic logP |
| --- | --- |
| Cn1nnnc1C(=NOCc1nc(Br)ccc1F)c1ccccc1 [Example 96, N-[(6-bromo-3-fluoro-pyridin-2-yl)methoxy]-1-(1-methyl-1H-tetrazol-5-yl)-1-phenylmethanimine] | 3.27 |

Same assay, conditions: logP(HCOOH), HPLC/MS

| SMILES | chromatographic logP |
| --- | --- |
| Cc1cccc(NC=O)n1 [N-(6-methylpyridin-2-yl)formamide] | 0.45 |
| Cc1nnnn1C(=NOCc1csc(C#CC2CC2)n1)c1ccccc1 [Example 159] | 3.65 |
| CC(C)(C)OC(=O)Nc1cccc(CO)n1 [tert-butyl [6-(hydroxymethyl)pyridin-2-yl]carbamate] | 1.14 |
| CC(C)(C)OC(=O)Nc1cccc(C=O)n1 [tert-butyl (6-formylpyridin-2-yl)carbamate] | 2.44 |

Same assay, conditions: method [a]: HPLC on reversed phase columns, pH 2.3 with 0.1% phosphoric acid and acetonitrile as eluent

| SMILES | log p |
| --- | --- |
| Cn1nnnc1C(=NOCc1cccc(C(O)CCc2ccccc2)n1)c1ccccc1 (stereo not shown) [Example 176] | 3.35^[a] |
| Cn1nnnc1C(=NOCc1cccc(NCC2CCC2)n1)c1ccccc1 [Example 178] | 1.98^[a] |
| CCOCCOCCNc1cccc(CON=C(c2ccccc2)c2nnnn2C)n1 [Example 197] | 1.7^[a] |
| Cn1nnnc1C(=NOCc1cccc(C=NN=CC2CC=CCC2)n1)c1ccccc1 (stereo not shown) [Example 201] | 4.16^[a] |
| Cn1nnnc1C(=NOCc1cccc(NCC2CC2)n1)c1ccccc1 [Example 144] | 1.75^[a] |

Same assay, conditions: method [b]: LC-MS at pH 2.7, 0.1% formic acid in water and acetonitrile, linear gradient 10% to 95% acetonitrile

| SMILES | log p |
| --- | --- |
| CCCCCNC(=S)Nc1cccc(CON=C(c2ccccc2)n2nnnc2C)n1 [Example 13] | 3.82^[b] |
| Cn1nnnc1C(=NOCc1nc(C#CCCCCl)sc1Cl)c1ccccc1 [Example 121] | 4.51^[b] |
| CCCCCN(C)C(=O)c1cccc(CON=C(c2ccccc2)c2nnnn2C)n1 [Example 85] | 3.29^[b] |
| Cn1nnnc1C(=NOCc1nc(C#CCCCc2ccccc2)ccc1F)c1ccccc1 [Example 104] | 4.84^[b] |
| Cn1nnnc1C(=NOCc1cccc(C#CCc2cccc(F)c2)n1)c1ccccc1 [Example 112] | 4.16^[b] |
| Cn1nnnc1C(=NOCc1cccc(C#CCC2CCC2)n1)c1ccccc1 [Example 111] | 4.39^[b] |
| CCCCOC(=O)NCc1cccc(CON=C(c2ccccc2)c2nnnn2C)n1 [Example 63] | 3.19^[b] |
| Cn1nnnc1C(=NOCc1nc(C#CCOc2ccccc2)ccc1F)c1ccccc1 [Example 106] | 4.04^[b] |
| Cc1nnnn1C(=NOCc1cccc(NC(=S)Nc2ccccc2)n1)c1ccccc1 [Example 5] | 3.31^[b] |
| Cn1nnnc1C(=NOCc1cccc(C#CC2=CCCCC2)n1)c1ccccc1 [Example 124] | 4.34^[b] |
| CC(C)C(C)NC(=O)c1cccc(CON=C(c2ccccc2)c2nnnn2C)n1 (stereo not shown) [Example 75] | 3.44^[b] |
| Cn1nnnc1C(=NOCc1cccc(F)n1)c1ccccc1 [Example 79] | 2.77^[b] |
| CC(C)CCC#Cc1ccc(F)c(CON=C(c2ccccc2)c2nnnn2C)n1 [Example 101] | 3.13^[b] |
| COC(=O)c1cccc(CON=C(c2ccccc2)n2nnnc2C)n1 [Example 14] | 2.47^[b] |
| Cn1nnnc1C(=NOCc1nc(C#CCOc2ccccc2)sc1Cl)c1ccccc1 [Example 119] | 4.62^[b] |

Same assay, conditions: method [b]: LC-MS at pH 2.7 with 0.1% formic acid in water and acetonitrile (0.1% formic acid), linear gradient 10% to 95% acetonitrile

| SMILES | log p |
| --- | --- |
| CSc1cccc(C(=NOCc2csc(Br)n2)c2nnnn2C)c1 [Example 299] | 3.55^[b] |
| Cn1nnnc1C(=NOCc1cccc(NOCCc2ccccc2)n1)c1ccccc1 [Example 287] | 3.69^[b] |
| Cn1nnnc1C(=NOCc1cccc(N(OCC2CCCCC2)C(=O)OC(C)(C)C)n1)c1ccccc1 [Example 283] | 6.25[b] |
| Cn1nnnc1C(=NOCc1cccc(N(OCc2ccccc2)C(=O)OC(C)(C)C)n1)c1ccccc1 [Example 282] | 4.65^[b] |
| CCc1ccc(C#Cc2nc(CON=C(c3cccc(F)c3)c3nnnn3C)cs2)cc1 [Example 293] | 5^[b] |
| Cn1nnnc1C(=NOCc1cccc(NC2CC3CCC2C3)n1)c1ccccc1 (stereo not shown) [Example 300] | 2.45^[b] |

Same assay, conditions: method [b]: LC-MS, pH 2.7 with 0.1% formic acid in water and acetonitrile (0.1% formic acid), linear gradient 10% to 95% acetonitrile

| SMILES | log p |
| --- | --- |
| COc1ccc(CON=C(c2ccccc2)c2nnnn2C)nc1C#CCCCC#N [Example 135] | 2.82^[b] |
| Cc1nnnn1C(=NOCc1csc(C#CCCCC#N)n1)c1ccccc1 [Example 171] | 3.02^[b] |
| Cn1nnnc1C(=NOCc1cccc(C#Cc2ccc(C#N)cc2)n1)c1ccccc1 [Example 224] | 3.69^[b] |
| Cn1nnnc1C(=NOCc1csc(C#CC2CC2)n1)c1cccc(F)c1 [Example 148] | 3.71^[b] |
| Cn1nnnc1C(=NOCc1csc(NCC2CC2)n1)c1ccccc1 [Example 162] | 2.26^[b] |
| Cn1nnnc1C(=NOCc1cccc(C#CCCCC#N)n1)c1ccccc1 [Example 239] | 2.9^[b] |
| CCCC(C)C#Cc1nc(CON=C(c2ccccc2)c2nnnn2C)c(C)s1 (stereo not shown) [Example 188] | 5.06^[b] |
| Cc1sc(C#CC2CCCC2)nc1CON=C(c1ccccc1)c1nnnn1C [Example 190] | 4.75^[b] |
| Cn1nnnc1C(=NOCc1cccc(C#CCc2ccccc2)n1)c1ccccc1 [Example 238] | 4.09^[b] |
| Cn1nnnc1C(=NOCc1csc(C#CCCCC#N)n1)c1cccc(F)c1 [Example 154] | 3.09^[b] |
| Cn1nnnc1C(=NOCc1csc(C#CCCCCl)n1)c1ccccc1 [Example 193] | 3.8^[b] |
| CCCOc1ccc(C#Cc2nc(CON=C(c3ccccc3)c3nnnn3C)cs2)cc1 [Example 256] | 5.03^[b] |
| CCCCCC#Cc1cccc(CON=C(c2ccccc2)c2nnnn2C)n1 [Example 214] | 4.67^[b] |
| CCC(=O)OCC#Cc1cccc(CON=C(c2ccccc2)c2nnnn2C)n1 [Example 254] | 3.29^[b] |
| CCOc1ccc(C#Cc2cccc(CON=C(c3ccccc3)c3nnnn3C)n2)cc1 [Example 227] | 4.41^[b] |
| Cn1nnnc1C(=NOCc1cccc(C#CCCCCCl)n1)c1ccccc1 [Example 211] | 3.99^[b] |
| CN(C)c1ccc(C#Cc2cccc(CON=C(c3ccccc3)c3nnnn3C)n2)cc1 [Example 251] | 4.29^[b] |
| CCCCC#Cc1nc(CON=C(c2ccccc2)c2nnnn2C)c(C)s1 [Example 183] | 3.37^[b] |
| CCSCC#Cc1cccc(CON=C(c2ccccc2)c2nnnn2C)n1 [Example 243] | 3.69^[b] |
| Cc1nnnn1C(=NOCc1csc(C#CCCCc2ccccc2)n1)c1ccccc1 [Example 166] | 4.84^[b] |
| Cn1nnnc1C(=NOCc1cccc(C#Cc2ccccc2Cl)n1)c1ccccc1 [Example 215] | 4.36^[b] |
| Cn1nnnc1C(=NOCc1csc(C#CCC2CCCC2)n1)c1cccc(F)c1 [Example 153] | 5.03^[b] |
| Cn1nnnc1C(=NOCc1cccc(C#Cc2ccc(Cl)cc2)n1)c1ccccc1 [Example 250] | 4.54^[b] |

Same assay, conditions: method [c]: LC-MS, pH 7.8 with 0.001 molar ammonium hydrogen carbonate solution in water, linear gradient 10% to 95% acetonitrile

| SMILES | log p |
| --- | --- |
| CCCCC1COC(c2cccc(CON=C(c3ccccc3)c3nnnn3C)n2)O1 (stereo not shown) [Example 172] | 4.34^[c] |
| Cn1nnnc1C(=NOCc1cccc(C2OCC(COCc3ccccc3)O2)n1)c1ccccc1 (stereo not shown) [Example 173] | 3.89^[c] |

Same assay, conditions: reversed phase HPLC column, pH 2.7, log p, method [b]: LC-MS at pH 2.7, 0.1% formic acid in water and acetonitrile, linear gradient 10% to 95% acetonitrile

| SMILES | chromatographic logP |
| --- | --- |
| Cn1nnnc1C(=NOCc1nc(Br)ccc1F)c1ccccc1 [Example 96, N-[(6-bromo-3-fluoro-pyridin-2-yl)methoxy]-1-(1-methyl-1H-tetrazol-5-yl)-1-phenylmethanimine] | 3.27 |

Same assay, conditions: reversed phase HPLC column, pH 2.7, log p, method [b]: LC-MS at pH 2.7 with 0.1% formic acid in water and acetonitrile (0.1% formic acid), linear gradient 10% to 95% acetonitrile

| SMILES | chromatographic logP |
| --- | --- |
| CCCCCON(C(=O)OC(C)(C)C)c1cccc(CON=C(c2ccccc2)c2nnnn2C)n1 [Example 268, tert-butyl {6-[({[(1-methyl-1H-tetrazol-5-yl)(phenyl)methylene]amino}oxy)methyl]pyridin-2-yl}(pentyloxy)carbamate] | 5.25 |

Same assay, conditions: reversed phase HPLC column, pH 2.7, log p, method [b]: LC-MS, pH 2.7 with 0.1% formic acid in water and acetonitrile (0.1% formic acid), linear gradient 10% to 95% acetonitrile

| SMILES | chromatographic logP |
| --- | --- |
| Cc1sc(Br)nc1CON=C(c1ccccc1)c1nnnn1C [Example 175, N-[(2-bromo-5-methyl-1,3-thiazol-4-yl)methoxy]-1-(1-methyl-1H-tetrazol-5-yl)-1-phenylmethanimine] | 3.37 |
| Cc1nnnn1C(=NOCc1csc(C#CC2CC2)n1)c1ccccc1 [Example 159] | 3.65 |
